Measurements as given in US20170152226A1, “FUNCTIONALISED AND SUBSTITUTED INDOLES AS ANTI-CANCER AGENTS” (Novogen Ltd., priority 2014, published 2017).

Experiments:
Type in all cases: cell-based
[1] = system: total actin cytoskeleton in SK-N-SH neuroblastoma cells; assay: Microfilament disruption assay, phalloidin staining; conditions: 0-40 μM, 24 hours post treatment
Description: (§1) FIG. 1: Imaging and quantitation of actin filaments in SK-N-SH neuroblastoma cells treated with compound (A) 3504, (B) 3507 and (C) 3516. Cells were stained with 488-Atto-Phallodin and DAPI to visualize the actin filament bundles and the nucleus, respectively. Shown in the top panel is a representative grey scale immunofluorescent image from control (vehicle alone), 5 μM and 10 μM treated cells. […] The coloured lines indicate the detected actin filaments. Also shown is the quantitation of cell number, filament number/cell and filament number/cell area (μM^2). […]
(§2) The ability of compounds 3504, 3507 and 3516 to disrupt the total actin cytoskeleton (FIG. 1) and to specifically target Tpm3.1-containing actin filaments (FIG. 2) was assessed in vitro using the microfilament disruption assay.
(§3) Briefly, SK-N-SH neuroblastoma cells were seeded at 1800 cells/well in a 384 Perkin Elmer High Content Imaging “View” plate and left to plate down 24 hours prior to treatment. […] Images were then exported and changes in the organization and numbers of actin filaments within the cell were quantitated using a linear feature detection algorithm developed by the CSIRO (Vindin et al., 2014). […] It is these “ridge lines” that correspond to actin filament bundles and allow us to quantitate the number of filaments per cell.

[2] = system: Tpm3.1-containing actin filaments in SK-N-SH neuroblastoma cells; assay: Microfilament disruption assay, γ9d staining; conditions: 0-40 μM, 24 hours post treatment
Description: as §1, with “FIG. 2:” for “FIG. 1:”, “with γ9d (sheep polycolonal, 1:100) followed by 488-conjugated secondary (1:1000)” for “with 488-Atto-Phallodin”, “the Tpm3.1 containing” for “the actin”
as §2, §3

DU145 = assay: Anti-proliferative activity, cell-titre luminescent viability assay; conditions: Homo sapiens, DU-145, 72 h, 0.1, 0.3, 1, 3, 10 and 30 μM, nonlinear regression sigmoidal dose-response (EC50), read-out: IC50 Prostate DU145
Procedure, shortened: (§4)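 Cells were seeded at pre-determined densities, cultured 24 hours at 37° C/5% CO2, then exposed 72 hours to compound at 0.03, 0.3, 3 and 30 μM or at 0.1, 0.3, 1, 3, 10 and 30 μM. Viability was read by cell-titre luminescence after 30 min, normalized to untreated control, and IC50 or EC50 derived.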

SK-Mel-28 = assay: as above; conditions: Homo sapiens, SK-MEL-28; 72 hours; 0.1, 0.3, 1, 3, 10 and 30 μM; nonlinear regression sigmoidal dose-response (EC50); read-out: IC50 Melanoma SK-Mel-28
Procedure, shortened: as §4

CaCo2 = assay: as above; conditions: Homo sapiens, Caco-2, 72 h, 0.1, 0.3, 1, 3, 10 and 30 μM, nonlinear regression sigmoidal dose-response (EC50), read-out: IC50 Colorectal CaCo2
Procedure, shortened: as §4

A549 = assay: as above; conditions: Homo sapiens, A549, 72 h, 0.1, 0.3, 1, 3, 10 and 30 μM, nonlinear regression sigmoidal dose-response (EC50), read-out: IC50 Lung (NSLC) A549
Procedure, shortened: as §4

MDA-MB-231 = assay: as above; conditions: Homo sapiens, MDA-MB-231, 72 h, 0.1, 0.3, 1, 3, 10 and 30 μM, nonlinear regression sigmoidal dose-response (EC50), read-out: IC50 Breast MDA-MB-231
Procedure, shortened: as §4

SK-N-SH = assay: as above; conditions: Homo sapiens, SK-N-SH, 72 h, 0.1, 0.3, 1, 3, 10 and 30 μM, nonlinear regression sigmoidal dose-response (EC50), read-out: IC50 Neuroblastoma SK-N-SH
Procedure, shortened: as §4

PC3 = assay: as above; conditions: Homo sapiens, PC-3, 72 h, 0.1, 0.3, 1, 3, 10 and 30 μM, nonlinear regression sigmoidal dose-response (EC50), read-out: IC50 Prostate PC3
Procedure, shortened: as §4

IC50 (DU145): 1400 nM
IC50 (SK-Mel-28): 1100 nM
IC50 (CaCo2): 1800 nM
IC50 (A549): 1600 nM
IC50 (MDA-MB-231): 1500 nM
IC50 (SK-N-SH): 1500 nM
IC50 (PC3): 2000 nM
SMILES: Cc1c(C)n(CCCN2CCN(C)CC2)c2ccc(Cc3cccc(C(=O)N4CCN(CCc5cccc(F)c5)CC4)c3)cc12 [Compound 3504, (3-((2,3-dimethyl-1-(3-(4-methylpiperazin-1-yl)propyl)-1H-indol-5-yl)methyl)phenyl)(4-(3-fluorophenethyl)piperazin-1-yl)methanone]
disruption of the total actin cytoskeleton [1]: in a dose-dependent manner
disruption of Tpm3.1-containing actin filaments [2]: in a dose-dependent manner
